According to patent US20230135894A1, “MK2 DEGRADERS AND USES THEREOF” (Kymera Therapeutics, Inc., priority 2021, published 2023):

Tests used:
MK2 [1] = target: T1, MK2 (Homo sapiens, UniProt P49137); test: MK2 degradation in human THP-1 monocytic cells (MSD, 24 h); format: cell-based; design: endogenous in cells; key to MK2 MSD THP-1 degradation 24 h GMean External Abs DC50: A (<0.001 μM); B (0.001-0.01 μM); C (0.01-0.1 μM); D (>0.1 μM); —: “-”=not tested or inactive; conditions: for Dmax: THP-1, THP-1 cells; for DC50: read-out: MK2 MSD THP-1 degradation 24 h GMean External Abs DC50
Summary of the method: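 Readout: residual MK2 protein in THP-1 lysates, measured by MSD electrochemiluminescence sandwich assay after 24 h compound exposure (≤10-point serial dilutions, 0.1% DMSO, 37 °C). Curves normalised between lysis-buffer and DMSO-cell signals; DC50 by 4-parameter logistic fit.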

MK2 [2] = target: T1, MK2; test: MK2 degradation in human SW1353 cells (MSD, 24 h); format: cell-based; design: endogenous in cells; host or cells: SW-1353 (ATCC HTB-94); key to MK2 MSD SW1353 degradation 24 h GMean External Abs DC50: A (<0.001 μM); B (0.001-0.01 μM); C (0.01-0.1 μM); D (>0.1 μM); —: “-”=not tested or inactive; conditions: for Dmax: read-out: MK2 MSD SW 1353 24 h Dmax %; for DC50: read-out: MK2 MSD SW1353 degradation 24 h GMean External Abs DC50
Summary of the method: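 DC50 derived by 4-parameter logistic fit, with DMSO-treated signal as top and lysis-buffer signal as bottom. Remaining MK2 was measured by MSD electrochemiluminescent sandwich assay in RIPA lysates of human SW1353 cells exposed for 24 h at 37 °C to serially diluted compound in 0.1% DMSO.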

T1 sequence (P49137 whole entry): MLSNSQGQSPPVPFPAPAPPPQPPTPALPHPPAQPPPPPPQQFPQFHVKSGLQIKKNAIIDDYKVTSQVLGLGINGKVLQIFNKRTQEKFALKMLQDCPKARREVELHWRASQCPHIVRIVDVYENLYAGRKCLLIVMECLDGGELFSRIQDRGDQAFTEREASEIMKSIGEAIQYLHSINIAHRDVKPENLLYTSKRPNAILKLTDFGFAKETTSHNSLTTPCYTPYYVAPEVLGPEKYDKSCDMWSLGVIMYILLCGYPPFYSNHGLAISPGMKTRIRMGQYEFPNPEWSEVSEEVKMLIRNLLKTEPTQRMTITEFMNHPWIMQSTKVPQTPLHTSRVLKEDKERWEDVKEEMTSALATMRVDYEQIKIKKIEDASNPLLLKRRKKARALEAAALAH

SMILES | Dmax (MK2 [1]) | DC50 (MK2 [1]; THP-1 cells) | Dmax (MK2 [2]) | DC50 (MK2 [2]) | MK2 MSD THP-1 degradation 24 h GMean External Abs DC50 (MK2 [1]; THP-1 cells) | MK2 MSD SW1353 degradation 24 h GMean External Abs DC50 (MK2 [2])
C[C@@H]1CNc2c(sc3ccc4nc(-c5ccc(N6CCN(CCCCOc7ccc(C8CCC(=O)NC8=O)cc7)CC6)nc5)ccc4c23)C(=O)N1 (some centres unmarked) [Compound I-183] | > 75% |  | > 75% |  | — | —
C[C@@H]1CNc2c(sc3ccc4nc(-c5cccc(C#CCCNC(=O)CCCCCCCc6cccc7c6n(C)c(=O)n7C6CCC(=O)NC6=O)c5)ccc4c23)C(=O)N1 (some centres unmarked) [Compound I-48] | > 75% | 10 to 100 nM | > 75% | 1 to 10 nM |  | 
C[C@@H]1CNc2c(sc3ccc4nc(-c5ccc(N6CCC(CN7CCC(c8cccc9c(N%10CCC(=O)NC%10=O)cncc89)CC7)CC6)cc5)ccc4c23)C(=O)N1 [Compound I-311] | > 75% | 1 to 10 nM | > 75% | 1 to 10 nM |  | 
C[C@@H]1CNc2c(sc3ccc4nc(N5CC6(CCN(CC7CCN(c8ccc9c(c8)n(C)c(=O)n9C8CCC(=O)NC8=O)CC7)CC6)C5)ccc4c23)C(=O)N1 (some centres unmarked) [Compound I-390] | < 50% | > 100 nM | < 50% | > 100 nM |  | 
CN1CCc2[nH]c(-c3ccnc(-c4ccc(N5CCN(CC6CCN(c7ccc8c(c7)n(C)c(=O)n8C7CCC(=O)NC7=O)CC6)CC5)cc4)c3)cc2C1=O (centres unmarked) [Compound I-450] | < 50% | > 100 nM | < 50% | > 100 nM |  | 
C[C@@H]1CNc2c(sc3ccc4nc(-c5ccc(N6CCC(CN7CCN(c8ccc9c(c8)CN(C8CCC(=O)NC8=O)C9=O)CC7)CC6)cc5)ccc4c23)C(=O)N1 (some centres unmarked) [Compound I-313] | > 75% | 1 to 10 nM | > 75% | 1 to 10 nM |  | 
C[C@@H]1CNc2c(sc3ccc4nc(-c5ccnc(N6CCN(CCCc7ccc8c(c7)n(C)c(=O)n8C7CCC(=O)NC7=O)CC6)c5)ccc4c23)C(=O)N1 (some centres unmarked) [Compound I-275] | > 75% | < 1 nM | > 75% | < 1 nM |  | 
Cn1c(=O)n(C2CCC(=O)NC2=O)c2cccc(CCCCCCN3CC4(CCN(c5ccc6c(c5)Cn5cc(-c7ccc(F)cc7)cc5-c5nccn5-6)C4)C3)c21 (centres unmarked) [Compound I-257] | < 50% | > 100 nM | < 50% | > 100 nM |  | 
C[C@@H]1CNc2c(sc3ccc4nc(N5CCN(CCC6CCN(c7ccc8c(c7)n(C)c(=O)n8C7CCC(=O)NC7=O)CC6)CC5)ccc4c23)C(=O)N1 (some centres unmarked) [Compound I-445] | > 75% | < 1 nM | > 75% | < 1 nM |  | 

Other lines, results leading:

Dmax (MK2 [1]) | DC50 (MK2 [1]; THP-1 cells) | Dmax (MK2 [2]) | DC50 (MK2 [2]) | MK2 MSD THP-1 degradation 24 h GMean External Abs DC50 (MK2 [1]; THP-1 cells) | MK2 MSD SW1353 degradation 24 h GMean External Abs DC50 (MK2 [2]) | SMILES
> 75% | < 1 nM | > 75% | < 1 nM |  |  | C[C@@H]1CNc2c(sc3ccc4nc(-c5ccc(N6CCC(CN7CCC(c8cccc9c8n(C)c(=O)n9C8CCC(=O)NC8=O)CC7)CC6)nc5)ccc4c23)C(=O)N1 (some centres unmarked) [Compound I-99]
> 75% | < 1 nM | > 75% | < 1 nM |  |  | Cc1nc(N2CCN(CC3CCN(c4ccc5c(c4)n(C)c(=O)n5C4CCC(=O)NC4=O)CC3)CC2)ccc1-c1ccc2c(ccc3sc4c(c32)NC[C@@H](C)NC4=O)n1 (some centres unmarked) [Compound I-283]
> 75% | < 1 nM | > 75% | < 1 nM |  |  | C[C@@H]1CNc2c(sc3ccc4nc(-c5cnc(N6CCC(CN7CCN(c8ccc9c(c8)n(C)c(=O)n9C8CCC(=O)NC8=O)CC7)CC6)nc5)ccc4c23)C(=O)N1 (some centres unmarked) [Compound I-271]
> 75% | < 1 nM | > 75% | < 1 nM |  |  | C[C@@H]1CNc2c(sc3ccc4nc(-c5ccc(N6CCC(CN7CCC(c8cccc9c8n(C)c(=O)n9C8CCC(=O)NC8=O)CC7)CC6)cc5F)ccc4c23)C(=O)N1 (some centres unmarked) [Compound I-299]
> 75% | < 1 nM | > 75% | < 1 nM |  |  | C[C@@H]1CNc2c(sc3ccc4nc(-c5cncc(N6CCN(CC7CCN(c8cccc9c8n(C)c(=O)n9C8CCC(=O)NC8=O)CC7)CC6)c5)ccc4c23)C(=O)N1 (some centres unmarked) [Compound I-160]
